Experimental data taken from US11160881B2, “Dendrimer compositions for use in angiography” (The Johns Hopkins University, priority 2017, dated 2021).

System: leaky retinal blood vessels
Assay: Fundus fluorescence angiogram imaging in lipid injected rat CNV model
Format: in vivo, brown Norway rats
Settings: 5 mg/kg, imaging on day 21 after lipid injection, 488 filter
Procedure: White arrows indicate precise location of retinal leakage identified by D-FITC nanoparticles.
Dendrimer fluorescent probes were investigated for their application in longitudinal imaging of retinal inflammation and oxidative stress. […] Lipid was injected in brown Norway rats via subretinal injection at day 0 and the fluorescence angiogram imaging was performed on day 21. The rats were anesthetized and administered with sodium fluorescein or D-FITC (5 mg/kg) and the rats were imaged under Micron-3 fundus microscope using a 488 filter at different time points (10 mins, 1 hr and 4 hrs). […] Free FITC perfuses and clears from the retina quickly within 1 hr. At early time points (10 mins) post injection free FITC leaked from the retinal blood vessels (FIG. 2, white arrows) in the areas of inflammation causing fluorescence background thereby making in unclear the exact location of the leaky blood vessels.

time to clearance from the retina: ≤ 1 h
SMILES: O=C1OC2(c3ccc(O)cc3Oc3cc(O)ccc32)c2ccccc21 [free FITC, sodium fluorescein]
